Experiments:
[1] = target: T1, IDO (SKOV3 human ovarian adenocarcinoma cells, IFN-γ induced) (Homo sapiens, UniProt P14902); assay: SKOV3 Kynurenine cell based assay; details: IDO induced by 500 ng/ml IFN-γ, 500 μM L-tryptophan, 48 hours
T1 construct: IDO expression was induced in the SKOV3 cells by the addition of 500 ng/ml IFN-γ; endogenous in cells; host or cells: SKOV3 human ovarian adenocarcinoma cells, induced with IFN-γ
Procedure: (§1) Exemplary compounds of the invention were prepared, and tested to determine their effect as TDO and/or IDO inhibitors. Two different assays were employed: 1. a cell-based assay for detecting the effect of test compounds on kynurenine production in two different cancer cell types. This assay utilised cancer cells which expressed either TDO or IDO and as such was used as a means of testing compound activity at these two enzymes in a cell-based context. 2. a TDO and IDO biochemical coupled assay which utilised recombinantly produced and purified TDO and IDO enzymes in combination with the enzyme formamidase. This coupled enzyme system allowed conversion of N-formylkynurenine produced by TDO or IDO activity to kynurenine which was then quantified by fluorescence following addition of Erhlich's Reagent The protocols for these are set out below.
(§2) A172 (human glioblastoma) and SKOV3 (human ovarian adenocarcinoma) cells were seeded in a 96 well plate at 30,000 or 40,000 cells per well respectively in phenol red-free RPMI supplemented with 10% FCS, 2 mM L-glutamine and 500 μM L-tryptophan. IDO expression was induced in the SKOV3 cells by the addition of 500 ng/ml IFN-γ. Cells were incubated at 37° C. with or without the addition of test compound. After 48 hours, the cells were removed by centrifugation and Erhlich's reagent was added to the supernatant.

[2] = target: T2, TDO (A172 human glioblastoma cells) (Homo sapiens, UniProt P48775); assay: A172 Kynurenine cell based assay; details: 500 μM L-tryptophan, 48 hours, kynurenine by Erhlich's reagent
T2 construct: This assay utilised cancer cells which expressed either TDO or IDO; endogenous in cells; host or cells: A172 human glioblastoma cells
Procedure: as §1
as §2, with “supernatant. The Erhlich's reagent was incubated for 5 minutes before the absorbance was read at 490 nm.” for “supernatant.”

Recombinant human IDO = Recombinant human IDO (Homo sapiens, UniProt P14902); assay: hIDO biochemical coupled assay; details: 45 μM L-tryptophan, coupled with kynurenine formamidase
Procedure: as §1
Recombinant human IDO or TDO was incubated in 50 mM KPO4 (pH 7.0), 0.5 mM EGTA, 0.5 mM EDTA, 0.05% Triton™ X100, 20 mM ascorbate, 10 μM methylene blue, 500 U/ml catalase, 50 μg/ml KynB (kynurenine formamidase).

T1 sequence (P14902 whole entry): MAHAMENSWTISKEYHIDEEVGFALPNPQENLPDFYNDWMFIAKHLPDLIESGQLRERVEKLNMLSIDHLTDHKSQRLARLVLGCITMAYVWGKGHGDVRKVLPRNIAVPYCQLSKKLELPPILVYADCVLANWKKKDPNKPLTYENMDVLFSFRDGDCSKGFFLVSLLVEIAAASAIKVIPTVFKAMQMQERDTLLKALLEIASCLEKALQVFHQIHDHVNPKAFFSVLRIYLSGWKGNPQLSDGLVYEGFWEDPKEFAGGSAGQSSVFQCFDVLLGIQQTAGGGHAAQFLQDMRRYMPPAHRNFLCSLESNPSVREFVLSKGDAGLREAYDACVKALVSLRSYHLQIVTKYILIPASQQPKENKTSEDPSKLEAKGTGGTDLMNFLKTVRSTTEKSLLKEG
Recombinant human IDO, sequence (P14902 whole entry): as above
T2 sequence (P48775 whole entry): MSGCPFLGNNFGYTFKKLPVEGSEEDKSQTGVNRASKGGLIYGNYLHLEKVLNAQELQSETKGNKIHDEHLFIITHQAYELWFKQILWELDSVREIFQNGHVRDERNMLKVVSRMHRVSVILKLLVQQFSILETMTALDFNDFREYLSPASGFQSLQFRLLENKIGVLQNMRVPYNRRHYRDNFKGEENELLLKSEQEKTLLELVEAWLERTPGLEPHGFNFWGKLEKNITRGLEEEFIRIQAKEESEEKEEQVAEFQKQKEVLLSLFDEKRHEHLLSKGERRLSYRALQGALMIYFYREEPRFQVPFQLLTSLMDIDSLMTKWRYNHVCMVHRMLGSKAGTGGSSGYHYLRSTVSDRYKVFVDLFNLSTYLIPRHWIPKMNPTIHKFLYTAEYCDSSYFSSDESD

SMILES | SKOV3 Kynurenine cell based assay pIC50 [1] | A172 Kynurenine cell based assay pIC50 [2] | hIDO biocehmical assay pIC50 (Recombinant human IDO)
COc1ccc(Cl)cc1S(=O)(=O)N1CCC(c2c[nH]c3c(C)cccc23)CC1 [Compound 45] | + (+ = pIC50 4.00-4.99) | + (+ = pIC50 4.00-4.99) | +− (+− = pIC50 <4.00)
Cc1cccc2c(C3CCN(S(=O)(=O)c4cc(F)c(F)cc4Cl)CC3)c[nH]c12 [Compound 38] | +− (+− = pIC50 <4.00) | + (+ = pIC50 4.00-4.99) | +− (+− = pIC50 <4.00)
CC(=O)N1CC=C(c2c[nH]c3ccncc23)CC1 [Compound 172] | + (+ = pIC50 4.00-4.99) | + (+ = pIC50 4.00-4.99) | +− (+− = pIC50 <4.00)
CC(=O)N1CCC(c2c[nH]c3ccc(F)cc23)CC1 [Compound 158] | +− (+− = pIC50 <4.00) | + (+ = pIC50 4.00-4.99) | +− (+− = pIC50 <4.00)
Cc1[nH]c2ccccc2c1C1=CCN(S(C)(=O)=O)CC1 [Compound 160] | + (+ = pIC50 4.00-4.99) | +− (+− = pIC50 <4.00) | +− (+− = pIC50 <4.00)
CS(=O)(=O)N1CC=C(c2c[nH]c3ccncc23)CC1 [Compound 170] | + (+ = pIC50 4.00-4.99) | ++ (++ = pIC50 5.00-5.99) | +− (+− = pIC50 <4.00)
COc1cccc2[nH]cc(C3=CCN(C(C)=O)CC3)c12 [Compound 169] | + (+ = pIC50 4.00-4.99) | + (+ = pIC50 4.00-4.99) | +− (+− = pIC50 <4.00)
Cc1cccc2c(C3CCN(S(=O)(=O)c4ccccc4S(C)(=O)=O)CC3)c[nH]c12 [Compound 49] | + (+ = pIC50 4.00-4.99) | ++ (++ = pIC50 5.00-5.99) | +− (+− = pIC50 <4.00)
Cn1cccc1C(=O)N1CCC(c2c[nH]c3cc(F)ccc23)CC1 [Compound 278] | ++ (++ = pIC50 5.00-5.99) | + (+ = pIC50 4.00-4.99) | + (+ = pIC50 4.00-4.99)
CS(=O)(=O)N1CCN(c2c[nH]c3ccccc23)CC1 [Compound 108] | +− (+− = pIC50 <4.00) | + (+ = pIC50 4.00-4.99) | +− (+− = pIC50 <4.00)
Cc1cccc2c(C3CCN(C(=O)c4cnn(-c5ccccc5)c4C(F)(F)F)CC3)c[nH]c12 [Compound 41] | + (+ = pIC50 4.00-4.99) | + (+ = pIC50 4.00-4.99) | +− (+− = pIC50 <4.00)
CCc1cc(Br)ccc1S(=O)(=O)N1CCC(c2c[nH]c3ccc(C)cc23)CC1 [Compound 50] | + (+ = pIC50 4.00-4.99) | + (+ = pIC50 4.00-4.99) | +− (+− = pIC50 <4.00)
CN1CCN(c2c[nH]c3ccccc23)CC1=O [Compound 189] | +− (+− = pIC50 <4.00) | + (+ = pIC50 4.00-4.99) | +− (+− = pIC50 <4.00)
Cc1noc(N2CCC(c3c[nH]c4cc(F)ccc34)CC2)n1 [Compound 183] | + (+ = pIC50 4.00-4.99) | ++ (++ = pIC50 5.00-5.99) | +− (+− = pIC50 <4.00)
COc1ccc2[nH]cc(C3CCN(S(=O)(=O)c4ccc(C(F)(F)F)cc4Cl)CC3)c2c1 [Compound 43] | + (+ = pIC50 4.00-4.99) | + (+ = pIC50 4.00-4.99) | +− (+− = pIC50 <4.00)
Fc1ccc2c(C3CCN(c4ncccn4)CC3)c[nH]c2c1 [Compound 180] | ++ (++ = pIC50 5.00-5.99) | + (+ = pIC50 4.00-4.99) | +− (+− = pIC50 <4.00)

SMILES | SKOV3 Kynurenine cell based assay pIC50 [1] | A172 Kynurenine cell based assay pIC50 [2] | hIDO biocehmical assay pIC50 (Recombinant human IDO)
CCCc1ccc(S(=O)(=O)N2CCC(c3c[nH]c4c(C)cccc34)CC2)cc1 [Compound 48] | + (+ = pIC50 4.00-4.99) | + (+ = pIC50 4.00-4.99) | +− (+− = pIC50 <4.00)
CC(=O)N1CC=C(c2c[nH]c3cc(OCc4ccccc4)ccc23)CC1 [Compound 156] | + (+ = pIC50 4.00-4.99) | + (+ = pIC50 4.00-4.99) | +− (+− = pIC50 <4.00)
Cc1cccc2c(C3CCN(S(=O)(=O)c4ccc(C(C)(C)C)cc4)CC3)c[nH]c12 [Compound 40] | +− (+− = pIC50 <4.00) | + (+ = pIC50 4.00-4.99) | +− (+− = pIC50 <4.00)
CS(=O)(=O)N1CC=C(c2c[nH]c3cnccc23)CC1 [Compound 171] | +− (+− = pIC50 <4.00) | ++ (++ = pIC50 5.00-5.99) | +− (+− = pIC50 <4.00)
CS(=O)(=O)N1CCC(c2c[nH]c3ccc(F)cc23)CC1 [Compound 159] | +− (+− = pIC50 <4.00) | ++ (++ = pIC50 5.00-5.99) | +− (+− = pIC50 <4.00)
Cc1cc(S(=O)(=O)N2CCC(c3c[nH]c4ccc(F)cc34)CC2)c(Cl)cc1Cl [Compound 39] | + (+ = pIC50 4.00-4.99) | + (+ = pIC50 4.00-4.99) | +− (+− = pIC50 <4.00)
Cc1[nH]c2ccccc2c1C1CCN(S(C)(=O)=O)CC1 [Compound 161] | + (+ = pIC50 4.00-4.99) | +− (+− = pIC50 <4.00) | +− (+− = pIC50 <4.00)
Cc1cccc2c(C3CCN(S(=O)(=O)c4cccc(C(F)(F)F)c4)CC3)c[nH]c12 [Compound 46] | +− (+− = pIC50 <4.00) | + (+ = pIC50 4.00-4.99) | +− (+− = pIC50 <4.00)
CC(=O)N1CCN(c2c[nH]c3ccccc23)CC1 [Compound 107] | +− (+− = pIC50 <4.00) | + (+ = pIC50 4.00-4.99) | +− (+− = pIC50 <4.00)
O=S(=O)(c1ccccc1OC(F)(F)F)N1CCC(c2c[nH]c3ccc(F)cc23)CC1 [Compound 51] | + (+ = pIC50 4.00-4.99) | + (+ = pIC50 4.00-4.99) | +− (+− = pIC50 <4.00)
CC(=O)N1CC=C(c2c[nH]c3ccc(OCc4ccccc4)cc23)CC1 [Compound 155] | + (+ = pIC50 4.00-4.99) | + (+ = pIC50 4.00-4.99) | +− (+− = pIC50 <4.00)
CC(=O)N1CCCC(c2c[nH]c3cc(F)ccc23)CC1 (stereo not drawn) [Compound 181] | +− (+− = pIC50 <4.00) | ++ (++ = pIC50 5.00-5.99) | +− (+− = pIC50 <4.00)
CC(=O)Nc1ccc(S(=O)(=O)N2CCC(c3c[nH]c4ccccc34)CC2)cc1Cl [Compound 52] | + (+ = pIC50 4.00-4.99) | +− (+− = pIC50 <4.00) | +− (+− = pIC50 <4.00)
CC(=O)N1CCC(c2c[nH]c3cc(C(F)(F)F)ccc23)CC1 [Compound 232] | + (+ = pIC50 4.00-4.99) | + (+ = pIC50 4.00-4.99) | 
CC(=O)N1CC=C(c2c[nH]c3ccc(C#N)cc23)CC1 [Compound 225] | + (+ = pIC50 4.00-4.99) | + (+ = pIC50 4.00-4.99) | 
CC(=O)N1CCC(c2c[nH]c3cc(Cl)ccc23)CC1 [Compound 245] | + (+ = pIC50 4.00-4.99) | ++ (++ = pIC50 5.00-5.99) | 

Reference: US9931347B2, “Pharmaceutical compound” (IOmet Pharma Ltd., priority 2013, dated 2018)
